Where two headings read alike, the source gives them in different places.
Legend:
[1] = system: methemoglobin; assay: Phase I safety study: methemoglobin (SpMet) by pulse oximeter; assay type: in vivo, human
Procedure: (§1) After obtaining informed consent, treatment was initiated within 5 days of enrollment. Subjects were housed in a hospital ward and received 160 ppm gNO for 30 minutes every four hours (Q4 h), five times a day, for five consecutive days by inhalation. Subjects returned for follow-up evaluations 3, 7 and 21 days after the final gNO administration. Subject safety was determined by monitoring vital signs, methemoglobin levels, lung function, blood chemistry, hematology, prothrombin time, inflammatory cytokine/chemokines levels and endothelial activation.
The levels of gNO, NO2, O2 and methemoglobin were monitored during the administration of gNO. The target gas mixture was 160 ppm gNO with a nitrogen dioxide (NO2) level of less than 5 ppm and an oxygen (O2) level ranging from 21% to 25%. Inspiratory NO, NO2 and O2 levels were continuously monitored by sampling from the mouthpiece sample port located about 6 millimeters from the mouth of the subject with an AeroNOx (Pulmonox, AB, Canada) NO, NO2 and O2 electrochemical analyzer. Delivery safety was determined by the number of occasions that NO2 exceeded 5 ppm, gNO exceeding 10% variation and O2 dropping below 20% during gNO administration. A commercially available noninvasive pulse oximeter (Rad 57, Masimo Corporation, USA) was used to measure saturation levels at the periphery of methemoglobin (SpMet).
(§2) These parameters were measured continuously during every gNO administration course and for 3.5 hours after the first treatment of the day. Daily serum samples were collected and frozen at −80° C. and the serum […] level was measured using the Griess reagent.

[2] = Phase I safety study: serum nitrite/nitrate by Griess reagent; assay type: in vivo, human; conditions: during the trial, 160 ppm gNO
Procedure: as §1, §2

[3] = Phase I safety study: hematology, clinical chemistry and coagulation; assay type: in vivo, human; conditions: end of study; baseline 0.15; p=0.104
Procedure: as §1
Hematological assessment included a complete blood count and differentials (hemoglobin, hematocrit, red blood cell count, white blood cell count, white blood cell differential, and platelet count) were obtained in order to monitor blood chemistry, hematology and inflammation measurements. […] The effect of gNO on coagulation was determined by the prothrombin time (PT) and its derived measures of prothrombin ratio (PR) and international normalized ratio (INR). […] Plasma cytokine levels were assessed using the human inflammation cytokine bead array kit (BD Bioscience, Canada). Plasma levels of angiopoietin Ang-1 and Ang-2 were determined by ELISA (R&D Systems, USA).

[4] = system: inflammatory cytokines; assay: Phase I safety study: plasma cytokine levels by cytokine bead array; assay type: in vivo, human; conditions: vs baseline
Procedure: as §1
(§3) Hematological assessment included a complete blood count and differentials (hemoglobin, hematocrit, red blood cell count, white blood cell count, white blood cell differential, and platelet count) were obtained in order to monitor blood chemistry, hematology and inflammation measurements. The blood chemistry profile included serum creatinine, and liver function tests such as aspartate aminotransferase (AST) serum glutamic oxaloacetic transaminase (SGOT), alkaline phosphatase, and gamma-glutamyl transferase (GGT). The effect of gNO on coagulation was determined by the prothrombin time (PT) and its derived measures of prothrombin ratio (PR) and international normalized ratio (INR). Heparinized plasma was collected at baseline and on days 1, 2, 4, and 5 of gNO administration, and on follow-up days 3, 7 and 21 and frozen at −80° C. Plasma cytokine levels were assessed using the human inflammation cytokine bead array kit (BD Bioscience, Canada). Plasma levels of angiopoietin Ang-1 and Ang-2 were determined by ELISA (R&D Systems, USA).

[5] = system: vascular endothelial activation factors Ang-1 and Ang-2; assay: Phase I safety study: plasma angiopoietin Ang-1 and Ang-2; assay type: in vivo, human; conditions: vs baseline
Procedure: as §1, §3

[6] = system: S. aureus (ATCC); conditions: 200 ppm gNO, saline suspension; cited from earlier work
[7] = system: MRSA; conditions: 200 ppm gNO, saline suspension; cited from earlier work
[8] = system: Serracia sp.; conditions: 200 ppm gNO, saline suspension; cited from earlier work
[9] = system: Klebsiella sp.#2; conditions: 200 ppm gNO, saline suspension; cited from earlier work
[10] = system: Enterobacter sp.; conditions: 200 ppm gNO, saline suspension; cited from earlier work
[11] = system: Acinetobacter sp.; conditions: 200 ppm gNO, saline suspension; cited from earlier work
[12] = system: E. Coli; conditions: 200 ppm gNO, saline suspension; cited from earlier work
[13] = system: Group B Streptococci; conditions: 200 ppm gNO, saline suspension; cited from earlier work
[14] = system: Mycobacterium; conditions: 200 ppm gNO, saline suspension; cited from earlier work
[15] = system: P. aeruginosa; conditions: cited from earlier work
[16] = system: influenza A/victoria/H3N2; conditions: 160 ppm exogenous gNO, virions or incubated cells, MDCK cell model; cited from earlier work
[17] = system: methemoglobin; conditions: healthy humans, cited from earlier work
[18] = cited from earlier work
[19] = gNO concentrations below 200 ppm, 6 hours/day for 28 days, rats; cited from earlier work
[20] = topical 200 ppm gNO, cited from earlier work
[21] = intermittent gNO inhalation; cited from earlier work
[22] = levels of gNO greater than 120 ppm

With `[N]=O` [gNO, nitric oxide] the “residual increase in SpMet at follow-up” value ([1]; 3, 7 and 21 days after the final exposure to gNO) was “did not show any residual increase”, the “all 930 recorded methemoglobin percent levels (SpMet)” value ([1]; 160 ppm gNO 30 minutes, five times a day, five days) was < 5% and the “SpMet increase between pretreatment and post treatment” value ([1]; 160 ppm gNO, p<0.001) was “about 1%”. For the same molecule, the “time for SpMet to return to baseline” value ([1]; after 160 ppm gNO administration) was 3.5 h, the “accumulative or lingering effect on SpMet” value ([1]; after five daily treatments for five consecutive days) was “no accumulative or lingering effect” and the “highest SpMet” value ([1]; at the end of the 160 ppm gNO treatment) was 2.5%. For the same molecule, the “average increase of SpMet” value ([1]; single 30 minutes treatment course, 160 ppm gNO, ten individuals) was 0.9%, the “serum nitrite/nitrate levels vs baseline” value [2] was “no significant differences” and the eosinophil cell numbers [3] was 0.19 giga/L. The “cytokine level of IL-1b” value [4] was “unaffected”, the “cytokine level of IL-6” value [4] was “unaffected” and the “cytokine level of IL-8” value [4] was “unaffected”. The “cytokine level of IL-10” value [4] was “unaffected”, the “cytokine level of IL-12p70” value [4] was “unaffected” and the “cytokine level of TNF” value [4] was “unaffected”. The Ang-1 plasma level [5] was “unaffected”, the Ang-2/Ang-1 ratio [5] was “not affected” and the Ang-2 plasma level [5] was “not affected”. The “LD100” value [6] was 4 h, the “Latent Period” value [6] was 3 h and the “−2.5 Log10 (hours)” value [6] was 3.3 hours. The “LD100” value [7] was 5 h, the “Latent Period” value [7] was 3 h and the “−2.5 Log10 (hours)” value [7] was 4.2 hours. The “LD100” value [8] was 6 h, the “Latent Period” value [8] was 4 h and the “−2.5 Log10 (hours)” value [8] was 4.9 hours. For the same molecule, the “LD100” value [9] was 5 h, the “Latent Period” value [9] was 2 h and the “−2.5 Log10 (hours)” value [9] was 4.1 hours. For the same molecule, the “LD100” value [10] was 6 h, the “Latent Period” value [10] was 4 h and the “−2.5 Log10 (hours)” value [10] was 5.3 hours. For the same molecule, the “LD100” value [11] was 6 h, the “Latent Period” value [11] was 4 h and the “−2.5 Log10 (hours)” value [11] was 5 hours. For the same molecule, the “LD100” value [12] was 5 h, the “Latent Period” value [12] was 3 h and the “−2.5 Log10 (hours)” value [12] was 4.2 hours. For the same molecule, the “LD100” value [13] was 2 h, the “Latent Period” value [13] was 1 h and the “−2.5 Log10 (hours)” value [13] was 1.5 hours. The “LD100” value [14] was 10 h, the “Latent Period” value [14] was 7 h and the “−2.5 Log10 (hours)” value [14] was 9.2 hours. For the same molecule, the “reduction of colony formation” value [15, 22] was “greater than 90%”, the “time required to achieve greater than 90% reduction of colony formation” value [15, 22] was 8 to 12 h and the “survival (downward bactericidal trend)” value ([15]; solid media, increasing gNO concentration up to 160 ppm, vs medical air) was 5-10%. For the same molecule, the “viral replication and infectivity” value [16] was “reduced not only viral replication but also their infectivity”, the MetHb level ([17]; inhalation of gNO at 128 ppm for 3 hours) was > 5% and the MetHb level ([17]; inhalation of gNO at 512 ppm for 55 minutes) was > 5%. For the same molecule, the mortality ([18]; 300 ppm gNO, groups of 10 rats, first 1-2 days) was “Six of the animals treated with 300 ppm gNO died”, the mortality ([18]; 400 ppm gNO, 6 continuous hours per day, rats) was “all of the animals died on the first day” and the mortality ([18]; 500 ppm gNO, 6 continuous hours per day, rats) was “all of the animals died on the first day”. For the same molecule, the MetHb level ([18]; 500 ppm gNO, rats) was 67 percents, the mortality [19] was “No deaths occurred” and the wound size reduction ([20]; at one week) was 42%. For the same molecule, the biofilm presence ([20]; within the first three days of treatment) was “no longer visibly present” and the “clinical symptoms of bovine respiratory disease” value [21] was “shown to decrease the clinical symptoms”.
